{
  "source": "EPA's ToxRefDB 2",
  "key": {"[1]": {"tested_on": "dog", "conditions": "Chronic toxicity, beagle, Oral, Capsule, dose end: 52 week, group: systemic"}, "[2]": {"tested_on": "rat", "conditions": "Combined chronic toxicity/carcinogenicity, sprague dawley, Oral, Feed, dose end: 734 day, group: systemic"}, "[3]": {"tested_on": "rat", "conditions": "Prenatal developmental toxicity study, sprague dawley, Oral, Feed, dose end: 20 GD"}, "[4]": {"tested_on": "mouse", "conditions": "Carcinogenicity, cd1, Oral, Feed, dose end: 87 week, group: systemic"}, "[5]": {"tested_on": "rat", "conditions": "Developmental neurotoxicity range-finding study; sprague dawley; Oral; Feed; dose end: 22 PND; group: cannot be grouped; systemic / in life observation / clinical signs / tremors"}, "[6]": {"tested_on": "dog", "conditions": "Subchronic oral toxicity in nonrodent, beagle, Capsule, dose end: 13 week"}, "[7]": {"tested_on": "rat", "conditions": "Subchronic oral toxicity in rodents, sprague dawley, Feed, dose end: 90 day, group: systemic"}, "[8]": {"tested_on": "rat", "conditions": "Prenatal developmental toxicity study, sprague dawley, Oral, Gavage/Intubation, dose end: 15 GD"}, "[9]": {"tested_on": "rat", "conditions": "Sub-acute repeat dose toxicity, sprague dawley, Oral, Feed, dose end: 28 day, group: systemic"}, "[10]": {"tested_on": "rat", "conditions": "Sub-acute repeat dose toxicity, sprague dawley, Oral, Feed, dose end: 28 day, group: systemic", "remark": "listed apart in the source"}, "[11]": {"tested_on": "dog", "conditions": "Chronic toxicity, beagle, Oral, Capsule, dose end: 1 year, group: systemic"}, "[12]": {"tested_on": "rabbit", "conditions": "Prenatal developmental toxicity study, new zealand white, Oral, Gavage/Intubation, dose end: 29 GD"}, "[13]": {"tested_on": "dog", "conditions": "Sub-acute repeat dose toxicity; beagle; Oral; Capsule; dose end: 28 day; group: systemic; systemic / pathology microscopic / heart / lesion(s) (nos)"}, "[14]": {"tested_on": "rabbit", "conditions": "Prenatal developmental toxicity study; new zealand white; Oral; Feed; dose end: 29 GD; group: developmental; developmental / developmental malformation / bone / absent + developmental / developmental malformation / bone / incomplete ossification + …"}, "[15]": {"conditions": "systemic / in life observation / clinical signs / tremors"}, "[16]": {"conditions": "systemic / in life observation / clinical signs / tremors + systemic / hematology / erythrocyte (rbc) count differential / erythrocyte (rbc…"}, "[17]": {"conditions": "group: developmental, developmental / developmental malformation / bone / unossified"}, "[18]": {"conditions": "group: maternal, systemic / in life observation / body weight / body weight gain + systemic / in life observation / clinical signs / hypersensitivity + …"}, "[19]": {"conditions": "systemic / pathology microscopic / testes / degeneration"}, "[20]": {"conditions": "group: maternal, reproductive / reproductive performance / estrous cycle / abnormal"}, "[21]": {"conditions": "group: systemic, systemic / in life observation / clinical signs / tremors + systemic / in life observation / body weight / body weight gain + systemic / in …"}, "[22]": {"conditions": "group: developmental, developmental / developmental malformation / ureter / hydroureter"}, "[23]": {"conditions": "group: maternal, systemic / in life observation / clinical signs / tremors"}, "[24]": {"conditions": "systemic / in life observation / body weight / body weight + systemic / in life observation / body weight / body weight gain + systemic / in…"}, "[25]": {"conditions": "systemic / in life observation / body weight / body weight gain"}, "[26]": {"conditions": "systemic / pathology microscopic / heart / lesion(s) (nos) + systemic / pathology microscopic / heart / fibrosis"}, "[27]": {"conditions": "group: developmental, developmental / developmental malformation / bone / absent + developmental / developmental malformation / bone / incomplete ossification + …"}, "[28]": {"conditions": "group: maternal, reproductive / reproductive performance / aborted / aborted + reproductive / reproductive performance / resorptions / resorptions + systemic…"}},
  "data": [
    {"smiles": "Cc1c(COC(=O)[C@@H]2[C@H](/C=C(\\Cl)C(F)(F)F)C2(C)C)cccc1-c1ccccc1", "note": "[Bifenthrin]", "values": [
      {"measurement": "LOAEL", "setting": "[1]; [15]", "value": 3, "unit": "mg/kg/day"},
      {"measurement": "LEL", "setting": "[1]; systemic / in life observation / clinical signs / tremors + systemic / clinical chemistry / sodium / sodium", "value": 3, "unit": "mg/kg/day"},
      {"measurement": "NEL", "setting": "[1]; [16]", "value": 1.5, "unit": "mg/kg/day"},
      {"measurement": "NOAEL", "setting": "[1]; [16]", "value": 1.5, "unit": "mg/kg/day"},
      {"measurement": "LOAEL", "setting": "[2]; [15]", "value": 6.1, "unit": "mg/kg/day"},
      {"measurement": "NOAEL", "setting": "[2]; systemic / in life observation / clinical signs / tremors + systemic / in life observation / body weight / body weight + systemic / in life …", "value": 3, "unit": "mg/kg/day"},
      {"measurement": "LEL", "setting": "[2]; systemic / organ weight / kidney / relative to body weight + systemic / organ weight / liver / relative to body weight", "value": 4.7, "unit": "mg/kg/day"},
      {"measurement": "NEL", "setting": "[2]; systemic / organ weight / kidney / relative to body weight + systemic / organ weight / liver / relative to body weight + systemic / in life …", "value": 2.3, "unit": "mg/kg/day"},
      {"measurement": "LEL", "setting": "[3]; [17]", "value": 16.3, "unit": "mg/kg/day"},
      {"measurement": "LOAEL", "setting": "[3]; [17]", "value": "> 16.3", "unit": "mg/kg/day"},
      {"measurement": "NEL", "setting": "[3]; [17]", "value": 7.4, "unit": "mg/kg/day"},
      {"measurement": "NOAEL", "setting": "[3]; [17]", "value": "≥ 16.3", "unit": "mg/kg/day"},
      {"measurement": "LEL", "setting": "[3]; [18]", "value": 16.3, "unit": "mg/kg/day"},
      {"measurement": "LOAEL", "setting": "[3]; [18]", "value": 16.3, "unit": "mg/kg/day"},
      {"measurement": "NEL", "setting": "[3]; [18]", "value": 7.4, "unit": "mg/kg/day"},
      {"measurement": "NOAEL", "setting": "[3]; [18]", "value": 7.4, "unit": "mg/kg/day"},
      {"measurement": "LOAEL", "setting": "[4]; [15]", "value": 25.6, "unit": "mg/kg/day"},
      {"measurement": "NOAEL", "setting": "[4]; systemic / in life observation / clinical signs / tremors + systemic / pathology microscopic / liver / adenoma/carcinoma combined + systemic…", "value": 6.7, "unit": "mg/kg/day"},
      {"measurement": "LEL", "setting": "[4]; [19]", "value": 6.7, "unit": "mg/kg/day"},
      {"measurement": "NEL", "setting": "[4]; [19]", "value": "< 6.7", "unit": "mg/kg/day"},
      {"measurement": "LEL", "setting": "[5]", "value": 9.3, "unit": "mg/kg/day"},
      {"measurement": "LOAEL", "setting": "[5]", "value": "> 9.3", "unit": "mg/kg/day"},
      {"measurement": "NEL", "setting": "[5]", "value": 7.4, "unit": "mg/kg/day"},
      {"measurement": "NOAEL", "setting": "[5]", "value": "≥ 9.3", "unit": "mg/kg/day"},
      {"measurement": "LEL", "setting": "[6]; [20]", "value": 10, "unit": "mg/kg/day"},
      {"measurement": "LOAEL", "setting": "[6]; [20]", "value": "> 20", "unit": "mg/kg/day"},
      {"measurement": "NEL", "setting": "[6]; [20]", "value": 5, "unit": "mg/kg/day"},
      {"measurement": "NOAEL", "setting": "[6]; [20]", "value": "≥ 20", "unit": "mg/kg/day"},
      {"measurement": "LOAEL", "setting": "[6]; group: systemic, systemic / in life observation / clinical signs / tremors", "value": 5, "unit": "mg/kg/day"},
      {"measurement": "NEL", "setting": "[6]; [21]", "value": 2.5, "unit": "mg/kg/day"},
      {"measurement": "NOAEL", "setting": "[6]; [21]", "value": 2.5, "unit": "mg/kg/day"},
      {"measurement": "LEL", "setting": "[6]; group: systemic, systemic / in life observation / clinical signs / tremors + systemic / in life observation / clinical signs / ataxia", "value": 5, "unit": "mg/kg/day"},
      {"measurement": "NEL", "setting": "[7]; systemic / in life observation / body weight / body weight + systemic / in life observation / body weight / body weight gain", "value": 17.2, "unit": "mg/kg/day"},
      {"measurement": "LOAEL", "setting": "[7]; [15]", "value": 7.5, "unit": "mg/kg/day"},
      {"measurement": "NOAEL", "setting": "[7]; systemic / in life observation / clinical signs / tremors + systemic / clinical chemistry / potassium / potassium + systemic / clinical …", "value": 3.8, "unit": "mg/kg/day"},
      {"measurement": "LEL", "setting": "[8]; [22]", "value": 2, "unit": "mg/kg/day"},
      {"measurement": "LOAEL", "setting": "[8]; [22]", "value": 2, "unit": "mg/kg/day"},
      {"measurement": "NEL", "setting": "[8]; [22]", "value": 1, "unit": "mg/kg/day"},
      {"measurement": "NOAEL", "setting": "[8]; [22]", "value": 1, "unit": "mg/kg/day"},
      {"measurement": "LEL", "setting": "[8]; [23]", "value": 2, "unit": "mg/kg/day"},
      {"measurement": "LOAEL", "setting": "[8]; [23]", "value": 2, "unit": "mg/kg/day"},
      {"measurement": "NEL", "setting": "[8]; [23]", "value": 1, "unit": "mg/kg/day"},
      {"measurement": "NOAEL", "setting": "[8]; [23]", "value": 1, "unit": "mg/kg/day"}
    ]},
    {"smiles": "Cn1cnc2c1c(=O)[nH]c(=O)n2C", "note": "[Theobromine]", "values": [
      {"measurement": "LOAEL", "setting": "[9]; [24]", "value": "> 912", "unit": "mg/kg/day"},
      {"measurement": "NOAEL", "setting": "[9]; [24]", "value": "≥ 912", "unit": "mg/kg/day"},
      {"measurement": "LEL", "setting": "[9]; systemic / in life observation / body weight / body weight + systemic / in life observation / food consumption / food consumption", "value": 389, "unit": "mg/kg/day"},
      {"measurement": "NEL", "setting": "[9]; systemic / in life observation / body weight / body weight + systemic / in life observation / food consumption / food consumption + systemic…", "value": 200, "unit": "mg/kg/day"},
      {"measurement": "LOAEL", "setting": "[10]; [24]", "value": "> 492", "unit": "mg/kg/day"},
      {"measurement": "NOAEL", "setting": "[10]; [24]", "value": "≥ 492", "unit": "mg/kg/day"},
      {"measurement": "LEL", "setting": "[10]; [25]", "value": 94, "unit": "mg/kg/day"},
      {"measurement": "NEL", "setting": "[10]; [25]", "value": "< 94", "unit": "mg/kg/day"},
      {"measurement": "LEL", "setting": "[11]; systemic / pathology microscopic / heart / lesion(s) (nos)", "value": 100, "unit": "mg/kg/day"},
      {"measurement": "LOAEL", "setting": "[11]; [26]", "value": "> 150", "unit": "mg/kg/day"},
      {"measurement": "NOAEL", "setting": "[11]; [26]", "value": "≥ 150", "unit": "mg/kg/day"},
      {"measurement": "LEL", "setting": "[12]; group: developmental, developmental / developmental malformation / bone / absent + developmental / developmental malformation / bone / incomplete ossification", "value": 75, "unit": "mg/kg/day"},
      {"measurement": "LOAEL", "setting": "[12]; [27]", "value": "> 200", "unit": "mg/kg/day"},
      {"measurement": "NEL", "setting": "[12]; [27]", "value": 25, "unit": "mg/kg/day"},
      {"measurement": "NOAEL", "setting": "[12]; [27]", "value": "≥ 200", "unit": "mg/kg/day"},
      {"measurement": "LOAEL", "setting": "[12]; [28]", "value": "> 200", "unit": "mg/kg/day"},
      {"measurement": "NEL", "setting": "[12]; [28]", "value": 25, "unit": "mg/kg/day"},
      {"measurement": "NOAEL", "setting": "[12]; [28]", "value": "≥ 200", "unit": "mg/kg/day"},
      {"measurement": "LEL", "setting": "[12]; group: maternal, reproductive / reproductive performance / resorptions / resorptions + reproductive / offspring survival early / dead fetuses / dead fetuses", "value": 75, "unit": "mg/kg/day"},
      {"measurement": "LEL", "setting": "[13]", "value": 100, "unit": "mg/kg/day"},
      {"measurement": "LOAEL", "setting": "[13]", "value": "> 150", "unit": "mg/kg/day"},
      {"measurement": "NEL", "setting": "[13]", "value": 75, "unit": "mg/kg/day"},
      {"measurement": "NOAEL", "setting": "[13]", "value": "≥ 150", "unit": "mg/kg/day"},
      {"measurement": "LEL", "setting": "[14]", "value": 41, "unit": "mg/kg/day"},
      {"measurement": "LOAEL", "setting": "[14]", "value": "> 63", "unit": "mg/kg/day"},
      {"measurement": "NEL", "setting": "[14]", "value": 21, "unit": "mg/kg/day"},
      {"measurement": "NOAEL", "setting": "[14]", "value": "≥ 63", "unit": "mg/kg/day"}
    ]}
  ]
}
